Literature values as cited in US20040248775A1, “Methods for screening inhibitors of apoptosis” (Wyeth, priority 2003, published 2004).

Target: T1, Apaf-1 (Homo sapiens, UniProt O14727)
T1 sequence (O14727 1-1248): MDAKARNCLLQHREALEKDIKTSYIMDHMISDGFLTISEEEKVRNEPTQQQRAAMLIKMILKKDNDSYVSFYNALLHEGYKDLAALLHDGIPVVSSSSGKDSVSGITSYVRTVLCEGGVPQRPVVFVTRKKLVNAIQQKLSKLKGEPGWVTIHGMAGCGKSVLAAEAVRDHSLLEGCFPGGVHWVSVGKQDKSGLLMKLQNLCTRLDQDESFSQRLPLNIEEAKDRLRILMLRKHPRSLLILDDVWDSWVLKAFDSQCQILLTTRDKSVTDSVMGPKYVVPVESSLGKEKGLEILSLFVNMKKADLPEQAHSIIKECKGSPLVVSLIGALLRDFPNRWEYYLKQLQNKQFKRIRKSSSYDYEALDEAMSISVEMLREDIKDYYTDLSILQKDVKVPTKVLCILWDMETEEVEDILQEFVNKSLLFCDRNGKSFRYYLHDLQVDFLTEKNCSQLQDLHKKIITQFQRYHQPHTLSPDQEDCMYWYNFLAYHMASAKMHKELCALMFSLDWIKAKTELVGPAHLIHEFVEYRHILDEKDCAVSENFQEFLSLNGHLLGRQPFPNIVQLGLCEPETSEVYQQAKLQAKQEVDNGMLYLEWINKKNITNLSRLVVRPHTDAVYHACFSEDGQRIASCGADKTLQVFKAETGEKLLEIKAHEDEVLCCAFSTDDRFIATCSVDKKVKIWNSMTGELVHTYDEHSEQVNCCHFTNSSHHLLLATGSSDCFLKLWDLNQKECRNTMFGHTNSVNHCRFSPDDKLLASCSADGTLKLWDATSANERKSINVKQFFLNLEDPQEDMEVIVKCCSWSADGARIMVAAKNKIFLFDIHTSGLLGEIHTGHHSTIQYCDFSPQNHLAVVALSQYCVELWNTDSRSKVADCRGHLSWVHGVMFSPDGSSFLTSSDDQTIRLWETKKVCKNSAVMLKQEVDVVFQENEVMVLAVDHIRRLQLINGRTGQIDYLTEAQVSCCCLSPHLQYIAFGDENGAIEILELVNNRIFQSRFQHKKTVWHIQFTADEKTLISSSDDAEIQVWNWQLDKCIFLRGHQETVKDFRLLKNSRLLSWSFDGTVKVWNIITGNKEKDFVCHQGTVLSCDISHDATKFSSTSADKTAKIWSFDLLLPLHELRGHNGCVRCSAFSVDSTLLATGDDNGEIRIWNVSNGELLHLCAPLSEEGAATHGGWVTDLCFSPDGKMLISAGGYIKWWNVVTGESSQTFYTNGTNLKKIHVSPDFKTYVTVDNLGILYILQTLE
Conditions: Jiang et al., 2000; cited from earlier work

SMILES: Nc1ncnc2c1ncn2[C@H]1C[C@H](O)[C@@H](COP(=O)(O)OP(=O)(O)OP(=O)(O)O)O1 [dATP]
- affinity of purine nucleotides for Apaf-1: greatest affinity
